Consider 30 molecules from patent publication US11459336B2, “Pyrazine carbamates and their use as GluN2B receptor modulators” (JANSSEN PHARMACEUTICA NV, priority 2019, dated 2022).

By IC50 is commonly meant the concentration needed to halve the response being measured.

The structures appear in SMILES notation.

The first experiment deals with T1, human GluN1/GluN2B NMDA receptors (Homo sapiens, UniProt Q05586+Q13224).
T1 construct: expressed in transfected cells
T1 sequence (Q13224 27-1484, other chains not shown): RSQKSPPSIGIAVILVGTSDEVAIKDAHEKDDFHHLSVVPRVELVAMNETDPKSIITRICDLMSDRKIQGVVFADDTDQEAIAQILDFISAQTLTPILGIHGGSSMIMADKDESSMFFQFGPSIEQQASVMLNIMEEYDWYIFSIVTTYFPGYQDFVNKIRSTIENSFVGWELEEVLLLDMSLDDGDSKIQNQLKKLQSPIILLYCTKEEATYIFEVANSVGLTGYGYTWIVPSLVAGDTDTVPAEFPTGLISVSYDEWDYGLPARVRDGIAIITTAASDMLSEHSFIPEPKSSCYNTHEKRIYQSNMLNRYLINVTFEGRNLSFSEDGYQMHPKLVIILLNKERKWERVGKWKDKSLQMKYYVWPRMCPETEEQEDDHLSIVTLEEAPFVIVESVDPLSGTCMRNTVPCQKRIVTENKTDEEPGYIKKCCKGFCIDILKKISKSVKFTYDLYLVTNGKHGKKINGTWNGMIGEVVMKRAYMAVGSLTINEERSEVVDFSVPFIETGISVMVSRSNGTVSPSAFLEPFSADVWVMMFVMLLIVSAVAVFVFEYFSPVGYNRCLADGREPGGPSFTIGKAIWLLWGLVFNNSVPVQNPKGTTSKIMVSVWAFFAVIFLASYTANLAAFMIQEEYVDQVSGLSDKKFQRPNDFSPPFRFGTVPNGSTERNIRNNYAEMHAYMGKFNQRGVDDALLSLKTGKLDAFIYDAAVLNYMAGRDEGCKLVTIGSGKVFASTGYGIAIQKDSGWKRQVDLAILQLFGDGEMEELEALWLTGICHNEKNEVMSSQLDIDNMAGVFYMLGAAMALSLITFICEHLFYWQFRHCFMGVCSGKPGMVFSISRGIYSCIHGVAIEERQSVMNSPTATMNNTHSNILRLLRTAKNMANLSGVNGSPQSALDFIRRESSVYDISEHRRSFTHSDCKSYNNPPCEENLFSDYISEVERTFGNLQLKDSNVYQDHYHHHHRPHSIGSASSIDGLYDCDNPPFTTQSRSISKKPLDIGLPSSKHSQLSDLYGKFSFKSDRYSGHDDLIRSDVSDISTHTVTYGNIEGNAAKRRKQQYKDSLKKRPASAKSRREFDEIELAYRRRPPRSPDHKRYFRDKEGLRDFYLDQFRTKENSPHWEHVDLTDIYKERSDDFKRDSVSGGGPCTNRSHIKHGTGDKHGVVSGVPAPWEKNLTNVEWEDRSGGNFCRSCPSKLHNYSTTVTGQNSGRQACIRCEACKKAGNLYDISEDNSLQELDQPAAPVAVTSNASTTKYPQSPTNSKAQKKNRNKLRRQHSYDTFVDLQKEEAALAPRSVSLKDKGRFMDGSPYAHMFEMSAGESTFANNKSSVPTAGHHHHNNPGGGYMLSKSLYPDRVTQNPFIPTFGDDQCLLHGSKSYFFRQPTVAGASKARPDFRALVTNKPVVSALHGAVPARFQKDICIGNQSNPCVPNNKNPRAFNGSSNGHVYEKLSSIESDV
Put plainly: Calcium flux (FLIPR) assay on cloned human GluN1/GluN2B ion channels expressed in mammalian cells, standard assay. To be noted: glutamate ~EC40, 10 μM glycine, stable cell line with Tet-On induced expression. The format is cell-based. On the procedure: (§1) NMDA receptors are ion channels that are highly permeable to Ca^2+ ions, rendering it possible to monitor NMDA receptor function using cell-based calcium flux assay. In this assay, co-agonists glutamate and glycine are added to cells heterologously expressing human GluN1/GluN2B NMDA receptors to initiate cellular Ca^2+ influx. The time course of the changes in intracellular calcium is measured using a fluorescent dye and a FLIPR (Fluorometric Imaging Plate Reader) device.
(§2) Twenty four hours before measurements, the expression of the NMDA receptors in the stable cell line is induced with Tet-On inducible system in the presence of a non-selective NMDA receptor blocker. On the day of the experiment, cell culture media is carefully washed and the cells are loaded with Calcium 5 Dye Kit (Molecular Devices) in dye loading buffer containing 137 mM NaCl, 4 mM KCl, 2 mM CaCl2, 0.5 mM MgCl2 (standard assay) or 1.5 mM MgCl2 (HTS assay), 10 mM HEPES and 5 mM D-glucose; pH 7.4. After 1 h incubation at the room temperature, the dye is washed away with the assay buffer (137 mM NaCl (standard assay) or 150 mM (HTS assay), 4 mM KCl (standard assay) or 3 mM (HTS assay), 2 mM CaCl2, 0.01 mM EDTA, 10 mM HEPES and 5 mM D-glucose; pH 7.4) In the FLIPR TETRA reader, various concentrations of the test compounds are added to the cells for 5 min while fluorescence is monitored to detect potential agonist activity. Next, co-agonists, glutamate and glycine are added for another 5 minutes. The concentration of glutamate corresponding to ˜EC40 (standard assay) or EC40 (HTS assay) is used to maximize the assay's signal window and ability to detect NMDA receptor antagonists and negative allosteric modulators. A saturating concentration (10 μM) of glycine is also present in the assay. A non-selective NMDA receptor antagonist, (+)MK-801 is used as a positive control for antagonist activity. The fluorescent signal in the presence of test compounds is quantified and normalized to the signal defined by the appropriate control wells.
In general terms: Calcium assays in cells follow changes in intracellular calcium, usually with a dye or a luminescent sensor.
For `CN(C)C(=O)C1CN(Cc2cncc(-c3ccc(Cl)c(OC(F)F)c3)n2)C(=O)O1` (racemic) [Example 55, (R/S)-3-[[6-[4-Chloro-3-(difluoromethoxy)phenyl]pyrazin-2-yl]methyl]-N,N-dimethyl-2-oxo-oxazolidine-5-carboxamide], the concentration for half-maximal inhibition (IC50) turned out to be 1390 nM.

Turning to `CNC(=O)C1CN(Cc2cncc(-c3ccc(Cl)c(OC(F)F)c3)n2)C(=O)O1` (racemic) [Example 56, (R/S)-3-[[6-[4-Chloro-3-(difluoromethoxy)phenyl]pyrazin-2-yl]methyl]-N-methyl-2-oxo-oxazolidine-5-carboxamide], the half-maximal inhibitory concentration (IC50) was found to be 2050 nM.

Regarding `O=C1OC(C(=O)N2CCC2)CN1Cc1cncc(-c2ccc(F)c(C(F)F)c2)n1` (racemic) [Example 58, (R/S)-5-(Azetidine-1-carbonyl)-3-[[6-[3-(difluoromethyl)-4-fluoro-phenyl]pyrazin-2-yl]methyl]oxazolidin-2-one], the concentration for half-maximal inhibition (IC50) is over 3000 nM.

In the case of `CNC(=O)C1CN(Cc2cncc(-c3ccc(F)c(OC(F)F)c3)n2)C(=O)O1` (racemic) [Example 60, (R/S)-3-[[6-[3-(Difluoromethoxy)-4-fluoro-phenyl]pyrazin-2-yl]methyl]-N-methyl-2-oxo-oxazolidine-5-carboxamide], the half-inhibitory concentration (IC50) came out at 5390 nM.

In the case of `O=C1OC(C(=O)N2CCC2)CN1Cc1cncc(-c2ccc(F)c(OC(F)F)c2)n1` (racemic) [Example 61, (R/S)-5-(Azetidine-1-carbonyl)-3-[[6-[3-(difluoromethoxy)-4-fluoro-phenyl]pyrazin-2-yl]methyl]oxazolidin-2-one], the half-inhibitory concentration (IC50) worked out at 5740 nM.

For the molecule `CN(C)C(=O)C1CN(Cc2cncc(-c3ccc(F)c(C(C)(F)F)c3)n2)C(=O)O1` (racemic) [Example 62, (R/S)-3-[[6-[3-(1,1-Difluoroethyl)-4-fluoro-phenyl]pyrazin-2-yl]methyl]-N,N-dimethyl-2-oxo-oxazolidine-5-carboxamide], the IC50 amounted to 3680 nM.

Consider `CNC(=O)C1CN(Cc2cncc(-c3ccc(F)c(C(C)(F)F)c3)n2)C(=O)O1` (racemic) [Example 63, (R/S)-3-[[6-[3-(1,1-Difluoroethyl)-4-fluoro-phenyl]pyrazin-2-yl]methyl]-N-methyl-2-oxo-oxazolidine-5-carboxamide], for which the IC50 was over 3000 nM.

`CC(F)(F)c1cc(-c2cncc(CN3CC(C(=O)N4CCC4)OC3=O)n2)ccc1F` (racemic) [Example 64, (R/S)-5-(Azetidine-1-carbonyl)-3-[[6-[3-(1,1-difluoroethyl)-4-fluoro-phenyl]pyrazin-2-yl]methyl]oxazolidin-2-one]: the IC50 was over 3000 nM.

Consider `CN(C)C(=O)C1CN(Cc2cncc(-c3ccc(F)c(C(F)F)c3)n2)C(=O)O1` (racemic) [Example 65, (R/S)-3-[[6-[3-(Difluoromethyl)-4-fluoro-phenyl]pyrazin-2-yl]methyl]-N,N-dimethyl-2-oxo-oxazolidine-5-carboxamide], for which the IC50 was over 3000 nM.

As for `CN(C)C(=O)C1CN(Cc2cncc(-c3ccc(F)c(OC(F)F)c3)n2)C(=O)O1` (racemic) [Example 66, (R/S)-3-[[6-[3-(Difluoromethoxy)-4-fluoro-phenyl]pyrazin-2-yl]methyl]-N,N-dimethyl-2-oxo-oxazolidine-5-carboxamide], the 50% inhibitory concentration (IC50) turned out to be 141 nM.

For a further experiment, the target named is T2, human GluN1/GluN2B NMDA receptors (Homo sapiens, UniProt Q13224).
T2 construct: expressed in transfected cells
T2 sequence (Q13224 27-1484, other chains not shown): as above
The experiment is described as above. The experiment is classed as cell-based. To be noted: glutamate ~EC40, 10 μM glycine, stable cell line with Tet-On induced expression. As to the method:
as §1, §2
In the case of `Cc1ncc(-c2ccc(Cl)c(OC(F)F)c2)nc1CN1CCCOC1=O` [Example 37, 3-[[6-[4-Chloro-3-(difluoromethoxy)phenyl]-3-methyl-pyrazin-2-yl]methyl]-1,3-oxazinan-2-one], the half-maximal inhibitory concentration (IC50) turned out to be 18 nM.

Turning to `CC(F)(F)c1cccc(-c2cncc(CN3CC4(CC4)OC3=O)n2)c1` [Example 38, 5-[[6-[3-(1,1-Difluoroethyl)phenyl]pyrazin-2-yl]methyl]-7-oxa-5-azaspiro[2.4]heptan-6-one], the half-maximal inhibitory concentration (IC50) came to 17 nM.

Take `CC1(C)CN(Cc2cncc(-c3cccc(C(C)(F)F)c3)n2)C(=O)O1` [Example 39, 3-[[6-[3-(1,1-Difluoroethyl)phenyl]pyrazin-2-yl]methyl]-5,5-dimethyl-oxazolidin-2-one]: the half-maximal inhibitory concentration (IC50) is 4510 nM.

Consider `C[C@@H]1CN(Cc2cncc(-c3cccc(C(C)(F)F)c3)n2)C(=O)O1` [Example 40, (5R)-3-[[6-[3-(1,1-Difluoroethyl)phenyl]pyrazin-2-yl]methyl]-5-methyl-oxazolidin-2-one], for which the IC50 is 39 nM.

Take `C[C@H]1CN(Cc2cncc(-c3cccc(C(C)(F)F)c3)n2)C(=O)O1` [Example 41, (5S)-3-[[6-[3-(1,1-Difluoroethyl)phenyl]pyrazin-2-yl]methyl]-5-methyl-oxazolidin-2-one]: the IC50 was determined as 167 nM.

On to `CC(F)(F)c1cccc(-c2cncc(CN3CCCOC3=O)n2)c1` [Example 42, 3-[[6-[3-(1,1-Difluoroethyl)phenyl]pyrazin-2-yl]methyl]-1,3-oxazinan-2-one], for which the IC50 was 105 nM.

Turning to `Cc1ncc(-c2cccc(C(C)(F)F)c2)nc1CN1CC2(CC2)OC1=O` [Example 43, 5-[[6-[3-(1,1-Difluoroethyl)phenyl]-3-methyl-pyrazin-2-yl]methyl]-7-oxa-5-azaspiro[2.4]heptan-6-one], the IC50 was 203 nM.

Turning to `Cc1ncc(-c2cccc(C(C)(F)F)c2)nc1CN1CC(C)(C)OC1=O` [Example 44, 3-[[6-[3-(1,1-Difluoroethyl)phenyl]-3-methyl-pyrazin-2-yl]methyl]-5,5-dimethyl-oxazolidin-2-one], the 50% inhibitory concentration (IC50) is over 3000 nM.

As to `Cc1ncc(-c2cccc(C(C)(F)F)c2)nc1CN1CCCOC1=O` [Example 45, 3-[[6-[3-(1,1-Difluoroethyl)phenyl]-3-methyl-pyrazin-2-yl]methyl]-1,3-oxazinan-2-one], the IC50 came out at 127 nM.

In the case of `C[C@@H]1COC(=O)N1Cc1cncc(-c2ccc(F)c(C(C)(F)F)c2)n1` [Example 46, (4R)-3-[[6-[3-(1,1-Difluoroethyl)-4-fluoro-phenyl]pyrazin-2-yl]methyl]-4-methyl-oxazolidin-2-one], the IC50 was found to be 166 nM.

`C[C@H]1COC(=O)N1Cc1cncc(-c2ccc(F)c(C(C)(F)F)c2)n1` [Example 47, (4S)-3-[[6-[3-(1,1-Difluoroethyl)-4-fluoro-phenyl]pyrazin-2-yl]methyl]-4-methyl-oxazolidin-2-one]: the concentration for half-maximal inhibition (IC50) amounted to 624 nM.

Turning to `CC(F)(F)c1cccc(-c2cncc(CN3CCC4(CC4)OC3=O)n2)c1` [Example 48, 6-[[6-[3-(1,1-Difluoroethyl)phenyl]pyrazin-2-yl]methyl]-8-oxa-6-azaspiro[2.5]octan-7-one], the 50% inhibitory concentration (IC50) turned out to be 124 nM.

With `O=C1OC2(CCN1Cc1cncc(-c3ccc(F)c(OC(F)F)c3)n1)CC2` [Example 49, 6-[[6-[3-(Difluoromethoxy)-4-fluoro-phenyl]pyrazin-2-yl]methyl]-8-oxa-6-azaspiro[2.5]octan-7-one], the IC50 came to 48 nM.

`O=C1OC2(CCN1Cc1cncc(-c3ccc(Cl)c(OC(F)F)c3)n1)CC2` [Example 50, 6-[[6-[4-Chloro-3-(difluoromethoxy)phenyl]pyrazin-2-yl]methyl]-8-oxa-6-azaspiro[2.5]octan-7-one]: the IC50 is 49 nM.

As to `O=C1OC2(CCN1Cc1cncc(-c3ccc(F)c(C(F)F)c3)n1)CC2` [Example 52, 6-[[6-[3-(Difluoromethyl)-4-fluoro-phenyl]pyrazin-2-yl]methyl]-8-oxa-6-azaspiro[2.5]octan-7-one], the half-maximal inhibitory concentration (IC50) amounted to 61 nM.

Turning to `Cc1ncc(-c2ccc(F)c(C(F)F)c2)nc1CN1CCC2(CC2)OC1=O` [Example 53, 6-[[6-[3-(Difluoromethyl)-4-fluoro-phenyl]-3-methyl-pyrazin-2-yl]methyl]-8-oxa-6-azaspiro[2.5]octan-7-one], the IC50 was 102 nM.

For `Cc1ncc(-c2ccc(F)c(OC(F)F)c2)nc1CN1CCC2(CC2)OC1=O` [Example 54, 6-[[6-[3-(Difluoromethoxy)-4-fluoro-phenyl]-3-methyl-pyrazin-2-yl]methyl]-8-oxa-6-azaspiro[2.5]octan-7-one], the IC50 worked out at 74 nM.

Regarding `O=C1OC(C(=O)N2CCC2)CN1Cc1cncc(-c2ccc(Cl)c(OC(F)F)c2)n1` (stereo not drawn) [Example 57, 5-(Azetidine-1-carbonyl)-3-[[6-[4-chloro-3-(difluoromethoxy)phenyl]pyrazin-2-yl]methyl]oxazolidin-2-one], the IC50 stood at 2000 nM.

Take `O=C1OC2(CNC2)CN1Cc1cncc(-c2ccc(Cl)c(OC(F)F)c2)n1` [Example 67, 6-[[6-[4-Chloro-3-(difluoromethoxy)phenyl]pyrazin-2-yl]methyl]-8-oxa-2,6-diazaspiro[3.4]octan-7-one]: the IC50 is 530 nM.

With `CN1CC2(C1)CN(Cc1cncc(-c3ccc(Cl)c(OC(F)F)c3)n1)C(=O)O2` [Example 68, 6-[[6-[4-Chloro-3-(difluoromethoxy)phenyl]pyrazin-2-yl]methyl]-2-methyl-8-oxa-2,6-diazaspiro[3.4]octan-7-one], the IC50 came out at 599 nM.
